Laboratory results published in patent publication US8349824B2, “Triazolopyridine compounds” (Hoffmann-La Roche Inc., priority 2010, dated 2013).
pIC50: −log10 of the molar value.

Key:
[1] = molecular target: T1, human PDE10A full length (Homo sapiens, UniProt Q9Y233); test: PDE10A Scintillation Proximity Assay (SPA), human PDE10A full length assay; type: biochemical; conditions: 50 nM cGMP + 50 nM [3H]-cGMP, 20 minutes at room temperature, read-out: PDE10A inhibition IC50
T1 construct: purchased Enzo Life Science, Lausen, Switzerland SE-534
T1 sequence (Q9Y233 1-779 isoform Q9Y233-1): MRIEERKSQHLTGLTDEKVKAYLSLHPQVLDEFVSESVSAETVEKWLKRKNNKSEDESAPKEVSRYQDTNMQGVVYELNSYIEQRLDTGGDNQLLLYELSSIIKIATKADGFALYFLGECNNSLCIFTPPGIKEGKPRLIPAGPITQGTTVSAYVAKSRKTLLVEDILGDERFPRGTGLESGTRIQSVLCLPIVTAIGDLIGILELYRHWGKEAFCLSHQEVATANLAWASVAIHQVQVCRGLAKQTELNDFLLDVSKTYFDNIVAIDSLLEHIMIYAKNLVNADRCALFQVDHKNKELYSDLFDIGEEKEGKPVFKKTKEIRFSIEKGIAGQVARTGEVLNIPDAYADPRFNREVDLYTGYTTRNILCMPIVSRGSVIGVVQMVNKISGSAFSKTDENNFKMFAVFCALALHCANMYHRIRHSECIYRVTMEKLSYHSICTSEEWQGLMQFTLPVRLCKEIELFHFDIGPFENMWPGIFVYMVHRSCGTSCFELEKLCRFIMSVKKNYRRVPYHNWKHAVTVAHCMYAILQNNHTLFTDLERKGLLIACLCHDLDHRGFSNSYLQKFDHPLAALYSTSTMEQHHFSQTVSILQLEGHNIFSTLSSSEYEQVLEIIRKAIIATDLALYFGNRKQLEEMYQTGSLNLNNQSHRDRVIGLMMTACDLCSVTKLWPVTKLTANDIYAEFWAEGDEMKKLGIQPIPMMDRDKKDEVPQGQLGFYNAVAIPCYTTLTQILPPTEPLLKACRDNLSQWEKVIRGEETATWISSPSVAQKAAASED
In short: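 IC50 values come from radioactive counts across a range of inhibitor concentrations, using YSi-SPA beads in zinc sulphate as stop reagent. Full-length enzyme hydrolysed 50 nM cGMP with 50 nM [3H]-cGMP for 20 min at room temperature in pH 7.5 HEPES buffer containing 10 mM MgCl2 and 0.05 mg/ml BSA.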

Row | pIC50 [1] | melting point [°C] | SMILES
1 | 9.32 | 250 to 251 | Cn1ncc(C(=O)N2CCCC2)c1C(=O)Nc1cc2nc(-c3ccccc3)nn2cc1F [Example 31, N-(6-fluoro-2-phenyl-[1,2,4]triazolo[1,5-a]pyridin-7-yl)-1-methyl-4-(pyrrolidine-1-carbonyl)-1H-pyrazole-5-carboxamide]
2 | 9.01 | 224 to 225 | Cn1ncc(C(=O)N2CCOCC2)c1C(=O)Nc1cc2nc(-c3ccccc3)nn2cc1F [Example 32, 2-Methyl-4-(morpholine-4-carbonyl)-2H-pyrazole-3-carboxylic acid (6-fluoro-2-phenyl-[1,2,4]triazolo[1,5-a]pyridin-7-yl)-amide]
3 | 7.55 | 141 to 143 | CC(C)c1nc2cc(NC(=O)c3c(C(=O)N4CCCC4)cnn3C)ccn2n1 [Example 34, N-(2-isopropyl-[1,2,4]triazolo[1,5-a]pyridin-7-yl)-1-methyl-4-(pyrrolidine-1-carbonyl)-1H-pyrazole-5-carboxamide]
4 | 8.13 | 240 to 241 | CN(C)c1nc2cc(NC(=O)c3c(C(=O)N4CCC4)cnn3C)ccn2n1 [Example 35, 4-(Azetidine-1-carbonyl)-N-(2-(dimethylamino)-[1,2,4]triazolo[1,5-a]pyridin-7-yl)-1-methyl-1H-pyrazole-5-carboxamide]
5 | 7.36 | 196 to 198 | CN(C)c1nc2cc(NC(=O)c3c(C(=O)N4CCOCC4)cnn3C)ccn2n1 [Example 36, N-(2-(dimethylamino)-[1,2,4]triazolo[1,5-a]pyridin-7-yl)-1-methyl-4-(morpholine-4-carbonyl)-1H-pyrazole-5-carboxamide]
6 | 8.35 | 199 to 201 | CN(C)c1nc2cc(NC(=O)c3c(C(=O)N4CCCC4)cnn3C)ccn2n1 [Example 37, N-(2-(dimethylamino)-[1,2,4]triazolo[1,5-a]pyridin-7-yl)-1-methyl-4-(pyrrolidine-1-carbonyl)-1H-pyrazole-5-carboxamide]
7 | 7.71 | 243 to 244 | CN(C)c1nc2cc(NC(=O)c3c(C(=O)N4CC(F)C4)cnn3C)ccn2n1 [Example 38, N-(2-(dimethylamino)-[1,2,4]triazolo[1,5-a]pyridin-7-yl)-4-(3-fluoroazetidine-1-carbonyl)-1-methyl-1H-pyrazole-5-carboxamide]
8 | 7.65 | 165 to 167 | CCN(CC)C(=O)c1cnn(C)c1C(=O)Nc1ccn2nc(N3CCOCC3)nc2c1 [Example 39, N4,N4-diethyl-1-methyl-N5-(2-morpholino-[1,2,4]triazolo[1,5-a]pyridin-7-yl)-1H-pyrazole-4,5-dicarboxamide]
9 | 8.15 | 237 to 240 | CN(C)C(=O)c1cnn(C)c1C(=O)Nc1ccn2nc(N3CCOCC3)nc2c1 [Example 40, N4,N4,1-trimethyl-N5-(2-morpholino-[1,2,4]triazolo[1,5-a]pyridin-7-yl)-1H-pyrazole-4,5-dicarboxamide]
10 | 8.18 | 201 to 203 | CCN(C)C(=O)c1cnn(C)c1C(=O)Nc1ccn2nc(N3CCOCC3)nc2c1 [Example 41, N4-ethyl-N4,1-dimethyl-N5-(2-morpholino-[1,2,4]triazolo[1,5-a]pyridin-7-yl)-1H-pyrazole-4,5-dicarboxamide]
11 | 8.24 | 253 to 254 | Cn1ncc(C(=O)N2CCC2)c1C(=O)Nc1ccn2nc(-c3cccnc3)nc2c1 [Example 44, 4-(Azetidine-1-carbonyl)-1-methyl-N-(2-(pyridin-3-yl)-[1,2,4]triazolo[1,5-a]pyridin-7-yl)-1H-pyrazole-5-carboxamide]
12 | 8.37 | 218 to 220 | Cn1ncc(C(=O)N2CCOCC2)c1C(=O)Nc1ccn2nc(-c3cccnc3)nc2c1 [Example 45, 1-Methyl-4-(morpholine-4-carbonyl)-N-(2-(pyridin-3-yl)-[1,2,4]triazolo[1,5-a]pyridin-7-yl)-1H-pyrazole-5-carboxamide]
13 | 8.93 | 226 to 228 | Cn1ncc(C(=O)N2CCCC2)c1C(=O)Nc1ccn2nc(-c3cccnc3)nc2c1 [Example 46, 1-Methyl-N-(2-(pyridin-3-yl)-[1,2,4]triazolo[1,5-a]pyridin-7-yl)-4-(pyrrolidine-1-carbonyl)-1H-pyrazole-5-carboxamide]
14 | 8.91 | 247 to 249 | Cn1ncc(C(=O)N2CC(F)C2)c1C(=O)Nc1ccn2nc(-c3cccnc3)nc2c1 [Example 47, 4-(3-Fluoroazetidine-1-carbonyl)-1-methyl-N-(2-(pyridin-3-yl)-[1,2,4]triazolo[1,5-a]pyridin-7-yl)-1H-pyrazole-5-carboxamide]
15 | 9.01 | 156 to 157 | CN(C(=O)c1cnn(C)c1C(=O)Nc1ccn2nc(-c3ccccc3)nc2c1)C1CC1 [Example 48, 2-Methyl-2H-pyrazole-3,4-dicarboxylic acid 4-(cyclopropyl-methyl-amide)3-[(2-phenyl-[1,2,4]triazolo[1,5-a]pyridin-7-yl)-amide]]
16 | 9.08 | > 250 | CN(CC(F)(F)F)C(=O)c1cnn(C)c1C(=O)Nc1ccn2nc(-c3ccccc3)nc2c1 [Example 49, 2-Methyl-2H-pyrazole-3,4-dicarboxylic acid 4-[methyl-(2,2,2-trifluoro-ethyl)-amide]3-[(2-phenyl-[1,2,4]triazolo[1,5-a]pyridin-7-yl)-amide]]
17 | 7.32 | 226 to 227 | CC(C)c1nc2cc(NC(=O)c3c(C(=O)N4CCC4)cnn3C)ccn2n1 [Example 50, 4-(Azetidine-1-carbonyl)-2-methyl-2H-pyrazole-3-carboxylic acid (2-isopropyl-[1,2,4]triazolo[1,5-a]pyridin-7-yl)-amide]
18 | 7.38 | 226 to 227 | CC(C)c1nc2cc(NC(=O)c3c(C(=O)N4CC(F)C4)cnn3C)ccn2n1 [Example 51, 4-(3-Fluoro-azetidine-1-carbonyl)-2-methyl-2H-pyrazole-3-carboxylic acid (2-isopropyl-[1,2,4]triazolo[1,5-a]pyridin-7-yl)-amide]
19 | 7.24 | 222 to 224 | CN(C(=O)c1cnn(C)c1C(=O)Nc1ccn2nc(N3CCOCC3)nc2c1)C1CCCC1 [Example 52, N4-cyclopentyl-N4,1-dimethyl-N5-(2-morpholino-[1,2,4]triazolo[1,5-a]pyridin-7-yl)-1H-pyrazole-4,5-dicarboxamide]
20 | 8.43 | 200 to 208 | CN(CCF)C(=O)c1cnn(C)c1C(=O)Nc1ccn2nc(-c3cccnc3)nc2c1 [Example 56, 2-Methyl-2H-pyrazole-3,4-dicarboxylic acid 4-[(2-fluoro-ethyl)-methyl-amide]3-[(2-pyridin-3-yl-[1,2,4]triazolo[1,5-a]pyridin-7-yl)-amide]]
21 | 8.15 | 229 to 232 | CCN(C)c1nc2cc(NC(=O)c3c(C(=O)N4CCC4)cnn3C)ccn2n1 [Example 58, 4-(Azetidine-1-carbonyl)-2-methyl-2H-pyrazole-3-carboxylic acid [2-(ethyl-methyl-amino)-[1,2,4]triazolo[1,5-a]pyridin-7-yl]-amide]
22 | 8.10 | 167 to 169 | CCN(C)c1nc2cc(NC(=O)c3c(C(=O)N4CCOCC4)cnn3C)ccn2n1 [Example 59, 2-Methyl-4-(morpholine-4-carbonyl)-2H-pyrazole-3-carboxylic acid [2-(ethyl-methyl-amino)-[1,2,4]triazolo[1,5-a]pyridin-7-yl]-amide]
23 | 8.50 | > 250 | Cn1ncc(C(=O)N2CCC2)c1C(=O)Nc1ccn2nc(N3CCCC3)nc2c1 [Example 60, 4-(Azetidine-1-carbonyl)-2-methyl-2H-pyrazole-3-carboxylic acid (2-pyrrolidin-1-yl-[1,2,4]triazolo[1,5-a]pyridin-7-yl)-amide]
24 | 9.03 | 194 to 197 | Cn1ncc(C(=O)N2CCOCC2)c1C(=O)Nc1ccn2nc(N3CCCC3)nc2c1 [Example 61, 2-Methyl-4-(morpholine-4-carbonyl)-2H-pyrazole-3-carboxylic acid (2-pyrrolidin-1-yl-[1,2,4]triazolo[1,5-a]pyridin-7-yl)-amide]
25 | 7.03 | 217 to 229 | CCNC(=O)c1nc2cc(NC(=O)c3c(C(=O)N4CCC4)cnn3C)ccn2n1 [Example 63, 7-{[4-(Azetidine-1-carbonyl)-2-methyl-2H-pyrazole-3-carbonyl]-amino}-[1,2,4]triazolo[1,5-a]pyridine-2-carboxylic acid ethylamide]
26 | 6.98 | 159 to 161 | COCCNC(=O)c1nc2cc(NC(=O)c3c(C(=O)N4CCC4)cnn3C)ccn2n1 [Example 64, 7-(4-(Azetidine-1-carbonyl)-1-methyl-1H-pyrazole-5-carboxamido)-N-(2-methoxyethyl)-[1,2,4]triazolo[1,5-a]pyridine-2-carboxamide]
27 | 7.17 | > 250 | Cn1ncc(C(=O)N2CCC2)c1C(=O)Nc1ccn2nc(Br)nc2c1 [Example 65, 4-(Azetidine-1-carbonyl)-2-methyl-2H-pyrazole-3-carboxylic acid (2-bromo-[1,2,4]triazolo[1,5-a]pyridin-7-yl)-amide]
28 | 8.74 | > 250 | Cn1ncc(C(=O)N2CCC2)c1C(=O)Nc1ccn2nc(-c3ccncc3)nc2c1 [Example 66, 4-(Azetidine-1-carbonyl)-2-methyl-2H-pyrazole-3-carboxylic acid (2-pyridin-4-yl-[1,2,4]triazolo[1,5-a]pyridin-7-yl)-amide]
